These results are taken from a melting point compilation (Tetko et al.).

In general, melting point refers to the temperature of the solid-liquid transition. Turning to `O=C(O)c1cccnc1-n1cnc2ccccc21`, the melting point was 249 to 251 °C.
As for `O=Cc1cn(-c2ccccc2)cn1`, the figure is 125 to 127 °C.
`O=C(O)c1cc(S(=O)(=O)N2CCCC2)c[nH]1` came in with a melting point of 175 to 177 °C.
As for `O=C(O)C=Cc1nc2ccccc2s1`, the figure is 222 to 224 °C; as for `Cc1cc(-c2nccn2Cc2ccccc2)c(=O)[nH]n1`, 215 to 217 °C; as for `CN(CC(=O)O)C(N)=O`, 141 to 143 °C.
Molecule `O=C(CN1CCNCC1)NCc1ccccc1` had a melting point of 49 to 51 °C.
As for `CC1(C)CCC(=CC(=O)O)CC1`, the figure is 88 to 90 °C; as for `O=C(CCl)Nc1nncs1`, 233 to 235 °C; as for `Cc1sc(NC(=O)C2CC2)c(C(=O)O)c1C`, 148 to 152 °C.
The value for `COc1ccc(-c2cc(C(=O)O)sc2C)cc1` was 186 to 188 °C; that for `Cc1nnc(CO)s1` was 83 to 85 °C; that for `COC(=O)C(N)c1cc(C)c(O)c(C)c1` (stereo unspecified) was 147 to 149 °C.
As for `CCc1c(C(=O)Nc2cc(S(=O)(=O)N(CC)CC)ccc2O)[nH]c(C)c1C(C)=O`, the figure is 229 to 231 °C; as for `Nc1ccnn1-c1ccc(C(F)(F)F)cn1`, 89 to 91 °C.
For `COC(=O)c1cc(S(=O)(=O)Cl)ccc1Br`, the melting point is 89 to 91 °C.
The value for `OCCNc1ccc(-c2ccccc2)nn1` was 162 to 164 °C; that for `Clc1cncc(-n2cncn2)n1` was 109 to 111 °C.
As for `Cc1c(C(=O)O)sc2ncn(C)c(=O)c12`, the figure is 215 to 217 °C; as for `CCCCC(Br)C(=O)Nc1cc(C)on1` (stereo unspecified), 84 to 86 °C; as for `CC(=O)Nc1ccc(OCC2CO2)cc1` (stereo unspecified), 117 to 119 °C.
The value for `CN1CCN(c2nccc(Cl)n2)CC1` was 94 to 96 °C; that for `Nc1cccc(S(=O)(=O)C2CCCC2)c1` was 117 to 119 °C; that for `COc1cc(C(=O)O)ccc1NN` was 149 to 151 °C.
The molecule `COc1cc(C=O)cc(Br)c1OC(F)F` showed a melting point of 90 to 92 °C.
As to `CCN(CC)c1ccc(N)cc1S(=O)(=O)Nc1ccc(OC)cc1`, the melting point was 107 to 109 °C.
The value for `NCC(O)c1ccc(Cl)cc1` (stereo unspecified) was 97 to 99 °C; that for `N#CCC(=O)NCCc1ccccc1` was 91 to 93 °C.
As for `CC(=O)c1oc2ccccc2c1N`, the figure is 154 to 156 °C.
As for `N#CN=C1CCCN1`, the figure is 126 to 128 °C.
`O=C(O)c1cccc(S(=O)(=O)NCc2cccs2)c1` displayed a melting point of 223 to 225 °C.
`CC(C)(C)OC(=O)N1CCN(C(=O)C2CCCN2)CC1` (stereo unspecified): the melting point is 219 to 221 °C.
As for `O=S1(=O)CCC(Cc2nnc(S)o2)C1` (stereo unspecified), the figure is 160 to 162 °C.
As for `Cc1ccc2cccnc2c1S(N)(=O)=O`, the figure is 170 to 172 °C.
The value for `Nc1cc(C2CC2)nn1-c1ncccn1` was 144 to 146 °C; that for `NC(=O)c1c[nH]nn1` was 256 to 258 °C.
In turn, `Cc1cccc(Cn2cccc(C(=O)O)c2=O)c1` displayed a melting point of 189 to 191 °C.
As for `O=C1CCCC1c1ccc(Cl)c(Cl)c1` (stereo unspecified), the melting point was 63 to 65 °C.
As for `CC(Cl)C(=O)Nc1ccc([N+](=O)[O-])cc1Cl` (stereo unspecified), the figure is 87 to 89 °C; as for `O=C(O)Cn1cc([N+](=O)[O-])ccc1=O`, 225 to 227 °C; as for `O=C(CCl)NCc1ccc(Cl)cc1`, 107 to 109 °C.
The value for `O=Cc1cnn(CC(F)(F)F)c1` was 56 to 58 °C; that for `CC(C)CNS(=O)(=O)c1ccc(C#N)cc1` was 99 to 101 °C.
The value for `CCN(CC)S(=O)(=O)c1ccc(Cl)c([N+](=O)[O-])c1` was 88 to 91 °C; that for `O=C(O)c1cc(OCc2ccccc2)ccn1` was 159 to 161 °C; that for `Fc1ccc(C2=NOC(CCl)C2)cc1` (stereo unspecified) was 59 to 61 °C.
On to `O=C(c1cccnc1)c1cc2ccccc2o1`, for which the melting point was 106 to 108 °C.
The value for `NC(=O)N1CCCC1CO` (stereo unspecified) was 94 to 96 °C; that for `CC1CCc2c(sc(N)c2C(N)=O)C1` (stereo unspecified) was 188 to 190 °C.
`O=C(CCl)NCc1ccc(F)cc1C(F)(F)F` registered a melting point of 95 to 97 °C.
The value for `Cc1ccc(S(=O)(=O)N2CCCC2)cc1C(=O)O` was 178 to 180 °C; that for `COc1ccc(NC(=S)NN)cn1` was 154 to 156 °C; that for `CC(=O)NCc1cccc(Br)c1` was 75 to 77 °C.
The value for `O=[N+]([O-])c1ccc(-c2nnc(CCl)o2)cc1` was 128 to 130 °C; that for `Clc1ccc(C2CC2)nn1` was 103 to 105 °C.
As for `O=C(O)C1CCN(C(=O)c2ccc3[nH]ncc3c2)CC1`, the figure is 246 to 248 °C.
For `ClCc1nc2cc(Cl)ccc2s1`, the melting point is 99 to 101 °C.
`CNC(=O)COc1cccc(CC(=O)O)c1` had a melting point of 128 to 130 °C.
As for `Cc1ccc(OCC(=O)O)c(C=O)c1`, the melting point was in the range of 144 to 146 °C.
As for `Cc1nn(-c2ccccc2)c2nc(Cl)c(C=O)cc12`, the figure is 189 to 191 °C; as for `O=C(O)CCCc1nc2ccccc2c(=O)[nH]1`, 269 to 271 °C; as for `O=C1COc2cc(NC(=O)OCC(F)(F)F)c(Cl)cc2N1`, 227 to 229 °C.
The molecule `CCS(=O)(=O)c1ccccc1Oc1ccc(N)cc1` returned a melting point of 124 to 126 °C.
The value for `Cn1nnc(C(=O)O)c1C(F)(F)F` was 114 to 116 °C.
As for `O=C(NO)C1CC1`, the figure is 127 to 129 °C.
As for `Nc1ccc(C(=O)N2CCOCC2)c(Cl)c1`, the figure is 205 to 207 °C; as for `CN(C)Cc1ccc(C(=O)O)cc1`, 239 to 241 °C; as for `OCC1CSCCN1` (stereo unspecified), 84 to 86 °C.
With `COC(=O)C1CC(O)CN1C(=O)c1ccc(F)cc1` (stereo unspecified), the melting point was in the range of 150 to 152 °C.
As for `Nc1ccc2[nH]c(-c3ccc(F)cc3)nc2c1`, the figure is 118 to 120 °C.
In turn, `CCc1cc(O)nc(CCl)n1` displayed a melting point of 125 to 127 °C.
The molecule `COCCN(CC(=O)O)C(=O)OC(C)(C)C` yielded a melting point of 76 to 78 °C.
The value for `CN(C)C(=O)c1cn[nH]c1N` was 167 to 169 °C.
The value for `Cc1ccc(Br)cc1NC(=O)CN` was 141 to 143 °C.
As for `O=C(CCl)c1c(-c2ccc(F)cc2)[nH]c2ccccc12`, the figure is 158 to 160 °C.
In the case of `COC(=O)c1nc(Cl)c2ccccc2c1O`, the melting point was in the range of 162 to 164 °C.
In the case of `CCC(C)n1ncc2c(C(=O)O)cc(C)nc21` (stereo unspecified), the melting point was 148 to 150 °C.
The value for `CS(=O)(=O)c1cccc(Oc2ccc(N)cc2)c1` was 103 to 105 °C.
As for `O=C(O)c1cccn(Cc2ccccc2)c1=O`, the figure is 129 to 131 °C; as for `Nc1nc2cc(Br)ccc2n1Cc1ccccc1`, 213 to 215 °C; as for `CC(=O)Nc1cc(F)c(F)cc1N`, 162 to 164 °C.
In turn, `CCOc1ccccc1C(=O)NC(C(=O)O)C(C)C` (stereo unspecified) showed a melting point of 127 to 129 °C.
The value for `CC(=O)C(Cc1ccccc1)NC(=O)CCl` (stereo unspecified) was 73 to 75 °C; that for `CCc1ccc(-n2nc(C(=O)O)c3c2CCC3)cc1` was 183 to 185 °C; that for `Cc1cc(C(=O)CCl)c(C)n1Cc1cccs1` was 83 to 85 °C.
`CC(O)Cc1ccc(Br)c(F)c1` (stereo unspecified): the melting point fell in the range of 36 to 38 °C.
The value for `O=C(O)CSc1ccc(O)cc1` was 141 to 143 °C.
The value for `COc1ccc(Cn2cc(C(=O)O)cn2)cc1` was 132 to 134 °C; that for `C#CCNC(=O)Nc1cccc(C#N)c1` was 167 to 169 °C.
The value for `Cc1sc(N)nc1-c1ccc(Br)cc1` was 147 to 149 °C.
With `CC(=O)Nc1c(C)cc(N)cc1C`, the melting point was 204 to 206 °C.
`COc1ccc2cc(C(=O)CBr)ccc2c1` yielded a melting point of 108 to 110 °C.
The molecule `CN(C)C(=O)COc1ccc(N)cc1` displayed a melting point of 129 to 131 °C.
The value for `O=C(CCl)NNC(=O)C1CC1` was 185 to 187 °C; that for `O=Cc1ccc(OCc2cscn2)cc1` was 78 to 80 °C.
The value for `Cc1ccc(CNC(=O)CCl)cc1` was 117 to 119 °C.
`O=C(OCc1ccccc1)N1CCc2n[nH]c(=O)cc2C1` showed a melting point of 175 to 177 °C.
Molecule `Cc1cc(N)n(C(C)(C)C)n1` came in with a melting point of 66 to 68 °C.
The value for `Cc1ccc(N2CCCNC(=O)C2)cc1` was 181 to 183 °C.
Regarding `N#Cc1ccc(-n2cc(C#N)c(N)n2)c(F)c1`, the melting point fell in the range of 258 to 260 °C.
As for `Cc1nn(C)cc1C(=O)O`, the figure is 190 to 192 °C; as for `Cc1ccc(-n2c(C)cc(C=O)c2C)cc1`, 102 to 104 °C; as for `O=C(O)c1ccc2c(c1)C(=O)N(CC1CCCO1)C2=O` (stereo unspecified), 153 to 155 °C.
`Cc1nc(Cc2ccccn2)sc1C(=O)O`: the melting point is 189 to 191 °C.
The value for `NC(=NO)c1cc2ccccc2o1` was 183 to 185 °C; that for `Cc1csc(CC(N)=NO)n1` was 126 to 128 °C; that for `CCOC(=O)c1cc(C)nc2c(C(N)=O)cnn12` was 198 to 200 °C.
As for `NS(=O)(=O)c1ncccn1`, the figure is 173 to 175 °C; as for `CCOC(=O)c1nc(NCc2ccccc2)sc1C`, 98 to 100 °C; as for `CC1(c2ccc(OC(F)F)cc2)NC(=O)NC1=O` (stereo unspecified), 141 to 143 °C.
The value for `C/C(=C\C(=O)O)C12CC3CC(CC(C3)C1)C2` was 169 to 171 °C; that for `CC(C(=O)NC1CCC(C(=O)O)CC1)n1cccn1` (stereo unspecified) was 154 to 156 °C.
For the molecule `O=C(O)C1CCCCN1C(=O)c1ccc(Br)c(F)c1` (stereo unspecified), the melting point lay within 134 to 136 °C.
As for `CC(C)(C)C1CCc2sc(-c3nnc(CCl)o3)cc2C1` (stereo unspecified), the figure is 89 to 91 °C.
As for `Cn1cnnc1SCC(=O)Nc1cccc(C(=O)O)c1`, the figure is 231 to 233 °C; as for `CC1CN(S(=O)(=O)c2ccc(C(=O)O)cc2)CC(C)O1` (stereo unspecified), 268 to 270 °C; as for `Cc1cc(C)n2ncc(C(=O)O)c2n1`, 176 to 178 °C.
The value for `Cc1cc(C(=O)O)c2cnn(C)c2n1` was 284 to 286 °C.
In the case of `Cc1nnnn1C(=Cc1ccccc1)C(=O)O`, the melting point lay in the range of 201 to 203 °C.
The value for `O=C(O)c1c[nH]c(=O)c(Br)c1` was 307 to 309 °C; that for `N#Cc1ccc2[nH]cc(C=O)c2c1` was 239 to 241 °C.
